What was measured:
[1] = target: T1, γ-secretase carrying presenilin 1 FAD mutation G384A (Homo sapiens, UniProt P49768, G384A); test: Inhibition of total AICD production, CHAPSO enriched γ-secretase membranes, FAD mutant G384A; assay type: biochemical; settings: for decrease in inhibition potency relative to the WT: G384A vs WT presenilin 1
T1 construct: expressed in transfected cells; host or cells: MEF double knockout for endogenous presenilin, transduced; CHAPSO-solubilised microsomal membranes
Method: (§1) Figure 9 Inhibition of WT presenilin 1 and FAD mutants by DAPT and L-685,458. CHAPSO enriched γ-secretase membranes carrying WT presenilin 1 or FAD mutations ΔE9 and G384A have been prepared and analyzed in parallel with all conditions identical. The dose response curves for DAPT [71] and L-685,458 [15] were measured by following total AICD production using western-blots with αM2 antiflag antibody as shown in Fig. 3. The results were analyzed using nonlinear regression and the equation 3 (methods).
(§2) MEF cells, or MEF double knockout for endogenous presenilin transduced with human WT, dE9 and G384A presenilin 1 [85], were grown to confluence, scraped, and collected in pellets by centrifugation at 1000×g for 5 min. The cell pellets were re-suspended in 20 mM Pipes pH = 7.0, 140 mM KCl, 0.25 M sucrose, 5 mM EGTA, plus 1X Roche protease inhibitors cocktail, so that the total protein concentration was 10 mg/ml. Re-suspended cells were subjected to more than 20 passages in 8.010 mm cell-cracker. The resulting cell extract was subjected to 10 min centrifugation on 2000×g to remove large debris, and the fragmented membranes were collected as pellets after centrifugation for 1 hour at 100 000×g, and stored at −80°C.
(§3) γ-Secretase assays using CHAPSO enriched membranes were performed essentially as earlier described, [37], [48], [89]. Briefly, microsomal fractions (protein concentration 10 mg/ml) from different MEF cells were solubilized in 1% CHAPSO buffer (50 mM Pipes, pH 7.0, 0.25 M sucrose, 1 mM EGTA, 1×Complete protease inhibitor mixture (Roche)) and incubated on ice for 1 h. CHAPSO was always prepared as 1% w/v fresh from a powder stock that was less than 6 months old and kept at 4°C (freshness is crucial for high activity). Next, the membrane-solubilized protein fractions were obtained as supernatant by ultracentrifugation for 1 hour at 100,000×g. The prepared CHAPSO enriched membranes were diluted […] with 50 mM Pipes pH = 7.0, 0.25 M sucrose, 1 mM EGTA, 0.1% phosphatidylcholine, and 0.0125% phosphatidylethanolamine, plus 1×Complete protease inhibitor mixture (Roche), and left on 37°C for two to three hours. This incubation can increase the measured activity by up to 70% since it can accommodate slow reassembly of γ-secretase components that is induced by the transition from 1% CHAPSO to 0.25% CHAPSO [90]. The reactions were started by adding C99 substrate in desired concentration, the added volume was adjusted so that: i) the final CHAPSO concentration was 0.25%; ii) and final concentration of membrane proteins was 0.25 mg/ml. Fresh C99 substrate that is used immediately after purification gives the best opportunity to observe described enzymatic features and the highest activity. The assay mix was prepared in low adhesion microcentrifuge tubes, the volume was usually 25 µL. To increase sensitivity in early data points detection, and at low enzyme saturation, the assay volume was increased up to 400 µL, and the resulting reaction products were concentrated by immunoprecipitation before the gels were loaded. The reaction mix was incubated at 37°C, the time was optimized for each experiment. The AICD production remains linear for 6 hours at saturating substrate. The reaction specificity was confirmed by running identical parallel reactions that have been saturated with inhibitors specific for γ-secretase; 10 µM LY-411,575 and 10 µM DAPT [3], [4]. […]

[2] = tested on: γ-secretase carrying presenilin 1 FAD mutation ΔE9; test: Inhibition of total AICD production, CHAPSO enriched γ-secretase membranes, FAD mutant ΔE9; assay type: biochemical, human; settings: for Hill's coef. / IC50: ΔE9 presenilin 1, best fit ± standard error, eqn. 3; for IC50: total AICD production, western blot; for decrease in inhibition potency relative to the WT: ΔE9 vs WT presenilin 1
Method: as §1, §2
γ-Secretase assays using CHAPSO enriched membranes were performed essentially as earlier described, [37], [48], [89]. Briefly, microsomal fractions (protein concentration 10 mg/ml) from different MEF cells were solubilized in 1% CHAPSO buffer (50 mM Pipes, pH 7.0, 0.25 M sucrose, 1 mM EGTA, 1×Complete protease inhibitor mixture (Roche)) and incubated on ice for 1 h. CHAPSO was always prepared as 1% w/v fresh from a powder stock that was less than 6 months old and kept at 4°C (freshness is crucial for high activity). Next, the membrane-solubilized protein fractions were obtained as supernatant by ultracentrifugation for 1 hour at 100,000×g. The prepared CHAPSO enriched membranes were diluted two fold with 50 mM Pipes pH = 7.0, 0.25 M sucrose, 1 mM EGTA, 0.1% phosphatidylcholine, and 0.0125% phosphatidylethanolamine, plus 1×Complete protease inhibitor mixture (Roche), and left on 37°C for two to three hours. This incubation can increase the measured activity by up to 70% since it can accommodate slow reassembly of γ-secretase components that is induced by the transition from 1% CHAPSO to 0.25% CHAPSO [90]. The reactions were started by adding C99 substrate in desired concentration, the added volume was adjusted so that: i) the final CHAPSO concentration was 0.25%; ii) and final concentration of membrane proteins was 0.25 mg/ml. Fresh C99 substrate that is used immediately after purification gives the best opportunity to observe described enzymatic features and the highest activity. The assay mix was prepared in low adhesion microcentrifuge tubes, the volume was usually 25 µL. To increase sensitivity in early data points detection, and at low enzyme saturation, the assay volume was increased up to 400 µL, and the resulting reaction products were concentrated by immunoprecipitation before the gels were loaded. The reaction mix was incubated at 37°C, the time was optimized for each experiment. The AICD production remains linear for 6 hours at saturating substrate. The reaction specificity was confirmed by running identical parallel reactions that have been saturated with inhibitors specific for γ-secretase; 10 µM LY-411,575 and 10 µM DAPT [3], [4].
AICD assays using western-blots with anti-flag αM2 monoclonal antibody, or 125-I labelled C99 autoradiography were performed as earlier described, [37]. To keep the C99 bands visible on gels in difference to the previous studies the reaction aliquots were not subjected to methanol /chloroform extraction. Briefly, the samples were separated on Nu-PAGE 12% Bis/Tris/MES/SDS-page gels (Invitrogen) at 150 V for 55 min. For 125-I-C99 assays the gels were dried and exposed for 1–2 hours to europium intensifying screens for autoradiography. […]

γ-secretase [3] = test: Michaelis-Menten profiles for AICD, Aβ 1–40 and Aβ 1–42 in presence of DAPT; assay type: biochemical; settings: enzyme approaching saturation with C99 substrate; DAPT 70-200 nM
Method: Figure 3 Michaelis-Menten profiles for AICD, Aβ 1–40 and Aβ 1–42 in presence of DAPT. CHAPSO enriched γ-secretase membranes were used to measure Michaelis-Menten profiles for total AICD production in presence of 0 nM (•), 70 nM (+) and 150 nM (O) of DAPT. Michaelis-Menten profiles for Aβ 1–40 and Aβ 1–42 production were measured in presence of 0 nM (•), 100 nM (+) and 200 nM (O) of DAPT. All profiles have been analyzed using nonlinear regression and the eqn. 4 (methods). The gel strips show different concentrations of the C99 substrate and the corresponding AICD products. […] AICD was measured using antiflag M2 antibodies (as shown in the gel strip). Aβ 1–40, and Aβ 1–42 were measured using AlphaScreen® as described in methods section.
γ-Secretase assays using CHAPSO enriched membranes were performed essentially as earlier described, [37], [48], [89]. […] This incubation can increase the measured activity by up to 70% since it can accommodate slow reassembly of γ-secretase components that is induced by the transition from 1% CHAPSO to 0.25% CHAPSO [90]. […]
AICD assays using western-blots with anti-flag αM2 monoclonal antibody, or 125-I labelled C99 autoradiography were performed as earlier described, [37]. […] Following the washes with TBS +0.1% Tween 20, the membranes were subjected to 25 nM GAMIR (MolecularProbes), washed, and read using fluorescence at […]. […]

[4] = target: T2, γ-secretase carrying WT presenilin 1 (Homo sapiens, UniProt P49768); test: Inhibition of total AICD production, CHAPSO enriched γ-secretase membranes, WT presenilin 1; assay type: biochemical; settings: best fit ± standard error, eqn. 3; for IC50: total AICD production, western blot
T2 construct: expressed in transfected cells; host or cells: MEF double knockout for endogenous presenilin, transduced; CHAPSO-solubilised microsomal membranes
Method: as §1, §2
as §3, with “activity.” for “activity. The assay mix was prepared in low adhesion microcentrifuge tubes, the volume was usually 25 µL. To increase sensitivity in early data points detection, and at low enzyme saturation, the assay volume was increased up to 400 µL, and the resulting reaction products were concentrated by immunoprecipitation before the gels were loaded. The reaction mix was incubated at 37°C, the time was optimized for each experiment. The AICD production remains linear for 6 hours at saturating substrate. The reaction specificity was confirmed by running identical parallel reactions that have been saturated with inhibitors specific for γ-secretase; 10 µM LY-411,575 and 10 µM DAPT [3], [4].”

γ-secretase [5] = settings: quoted without reference; read-out: IC50 in cell-based assays; cited from earlier work
γ-secretase [6] = test: Titration of γ-secretase activity in CHAPSO enriched membranes with LY-411,575; assay type: biochemical; settings: total protein 0.25 mg/ml and 0.09 mg/ml
Method: γ-Secretase assays using CHAPSO enriched membranes were performed essentially as earlier described, [37], [48], [89]. Briefly, microsomal fractions (protein concentration 10 mg/ml) from different MEF cells were solubilized in 1% CHAPSO buffer (50 mM Pipes, pH 7.0, 0.25 M sucrose, 1 mM EGTA, 1×Complete protease inhibitor mixture (Roche)) and incubated on ice for 1 h. CHAPSO was always prepared as 1% w/v fresh from a powder stock that was less than 6 months old and kept at 4°C (freshness is crucial for high activity). Next, the membrane-solubilized protein fractions were obtained as supernatant by ultracentrifugation for 1 hour at 100,000×g. The prepared CHAPSO enriched membranes were diluted two fold with 50 mM Pipes pH = 7.0, 0.25 M sucrose, 1 mM EGTA, 0.1% phosphatidylcholine, and 0.0125% phosphatidylethanolamine, plus 1×Complete protease inhibitor mixture (Roche), and left on 37°C for two to three hours. This incubation can increase the measured activity by up to 70% since it can accommodate slow reassembly of γ-secretase components that is induced by the transition from 1% CHAPSO to 0.25% CHAPSO [90]. The reactions were started by adding C99 substrate in desired concentration, the added volume was adjusted so that: i) the final CHAPSO concentration was 0.25%; ii) and final concentration of membrane proteins was 0.25 mg/ml. […]

patients = tested on: patients; parameters: method as in PMID 21222550; settings: Phase III clinical trials; cited from earlier work
[7] = target: γ-secretase (CHAPSO enriched γ-secretase membranes) (not stated (endogenous mouse in MEF, or human presenilin 1 transduced) | mouse (endogenous in MEF)) (UniProt P49768)
APP C99-3×FLAG (human) = test: AlphaScreen or HTRF; increasing fresh C99 incubated 3 h with 10 nM 3D6 antibody coupled to both donor and acceptor beads; signal only if C99 dimerization/oligomerization brings two epitopes together; apparent Kd from a quadratic equation specific for dimerization (dimer to monomers)
[8] = G384A presenilin 1, best fit ± standard error, eqn. 3

| Compound | Hill's coef. [1, 8] | decrease in inhibition potency relative to the WT [1] | Hill's coef. [2] | IC50 [2] | decrease in inhibition potency relative to the WT [2] | Hill's coef. [4] | IC50 [4] | also measured |
| --- | --- | --- | --- | --- | --- | --- | --- | --- |
| C[C@H](NC(=O)Cc1cc(F)cc(F)c1)C(=O)N[C@H](C(=O)OC(C)(C)C)c1ccccc1 [DAPT, N-[N-(3,5-difluorophenacetyl)-L-alanyl]-S-phenylglycine t-butyl ester] | 0.54±0.25 | about 1000 fold | 1.21±0.07 | 734 ± 254 nM | approximately twofold | 0.7±0.2 | 390 ± 179 nM | mode of inhibition versus C99 substrate (γ-secretase [3]): noncompetitive inhibitor |
| CC(C)C[C@H](NC(=O)[C@H](Cc1ccccc1)C[C@@H](O)[C@H](Cc1ccccc1)NC(=O)OC(C)(C)C)C(=O)N[C@@H](Cc1ccccc1)C(N)=O [L-685,458, {1S-benzyl-4R-[1S-carbamoyl-2-phenylethylcarbamoyl-1S-3-methylbutylcarbamoyl]-2R-hydroxy-5-phenylpentyl} carbamic acid tert-butyl ester] | 1±0.13 | 10–20 fold | 0.98± 0.08 | 707 ± 80 nM | 10–20 fold | 1.3±0.1 | 32 ± 4 nM | IC50 ([1]; G384A presenilin 1, total AICD production, western blot, best fit ± standard error, eqn. 3): 398 ± 51 nM |
| C[C@H](NC(=O)[C@@H](O)c1cc(F)cc(F)c1)C(=O)N[C@@H]1C(=O)N(C)c2ccccc2-c2ccccc21 [LY-411,575] |  |  |  |  |  |  |  | IC50 (γ-secretase [5]): ~0.1 nM; concentration that completely abolishes γ-secretase activity (γ-secretase [6]): 1 to 2 nM |
| CC(C)[C@H](O)C(=O)N[C@@H](C)C(=O)N[C@@H]1C(=O)N(C)CCc2ccccc21 [semagacestat] |  |  |  |  |  |  |  | effect on cognitive decline in patients (patients): can accelerate the cognitive decline |
| APP C99-3×FLAG (domain or fragment) |  |  |  |  |  |  |  | Y-axis intercept of the pre-steady-state burst in AICD production (3.0 µM C99, CHAPSO enriched γ-secretase membranes 0.25 mg/ml) [7]: 8.2 nM; Kd (APP C99-3×FLAG (human)): 33 nM |

Reference: PMC3316526, “Modulation of γ-Secretase Activity by Multiple Enzyme-Substrate Interactions: Implications in Pathogenesis of Alzheimer's Disease” (PLoS ONE, 2012)
